# Measurements reported in patent publication US9096598B2 (Merck Sharp & Dohme Corp., priority 2011, dated 2015).
# Legend:
# [1] = biological target: T1, JAK3 (Homo sapiens, UniProt P52333); experiment: Jak Biochemical HTRF Assay (JAK3); conditions: recombinant purified GST-tagged catalytic domain, [ATP] 2.9 μM, values given as range classes
# T1 construct: recombinant purified GST-tagged catalytic domain for each enzyme; purchased Invitrogen M4290
# Method in brief: (§1)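 GST-tagged recombinant catalytic domain and biotinylated peptide substrate were preincubated with compound for 30 min at room temperature in kinase buffer with 2 mM DTT and 0.05% BSA. ATP then started a 120 min reaction. Phosphopeptide was detected by HTRF (Eu-pY20/streptavidin-Dylight 650, 665/615 nm ratio), and IC50 came from a 4-parameter fit of percent inhibition.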
# [2] = biological target: T2, JAK2 (Homo sapiens, UniProt O60674); experiment: Jak Biochemical HTRF Assay (JAK2); conditions: recombinant purified GST-tagged catalytic domain, [ATP] 8.5 μM, values given as range classes
# T2 construct: recombinant purified GST-tagged catalytic domain for each enzyme; purchased Invitrogen M4290
# T2 sequence (O60674 849-1124 limits assumed): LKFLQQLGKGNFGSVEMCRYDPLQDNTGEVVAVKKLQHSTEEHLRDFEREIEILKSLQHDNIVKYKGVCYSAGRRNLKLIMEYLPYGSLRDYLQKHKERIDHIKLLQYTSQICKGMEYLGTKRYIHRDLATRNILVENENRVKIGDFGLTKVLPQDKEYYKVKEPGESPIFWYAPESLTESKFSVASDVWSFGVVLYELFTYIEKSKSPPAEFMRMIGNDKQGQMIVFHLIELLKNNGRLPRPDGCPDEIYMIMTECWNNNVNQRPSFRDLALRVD
# Method in brief: as §1
# T1 sequence (P52333 822-1111 limits assumed): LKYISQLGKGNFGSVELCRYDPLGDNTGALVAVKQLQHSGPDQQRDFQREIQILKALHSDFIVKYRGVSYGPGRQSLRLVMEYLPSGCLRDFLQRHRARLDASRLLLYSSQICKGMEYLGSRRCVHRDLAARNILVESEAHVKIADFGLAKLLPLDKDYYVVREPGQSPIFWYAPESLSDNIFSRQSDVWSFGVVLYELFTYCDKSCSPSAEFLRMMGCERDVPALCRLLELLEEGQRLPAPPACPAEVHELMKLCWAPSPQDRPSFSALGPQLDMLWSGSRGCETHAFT
IC50 [1] [nM],IC50 [2] [nM],Structure (SMILES)
10 to 500,10 to 500,"CCOC(=O)Nc1cnc2[nH]cc(-c3cncc(NC(C(=O)NCC(F)(F)F)C(C)C)c3)c2c1 (stereo not drawn) [Example 7-2, ethyl {3-[5-({2-methyl-1-[(2,2,2-trifluoroethyl)carbamoyl]propyl}amino)pyridin-3-yl]-1H-pyrrolo[2,3-b]pyridin-5-yl}carbamate]"
10 to 500,10 to 500,"CC(C)OC(=O)Nc1cnc2[nH]cc(-c3cncc(NC(C(=O)NCC(F)(F)F)C(C)C)c3)c2c1 (stereo not drawn) [Example 7-3, 1-methylethyl {3-[5-({2-methyl-1-[(2,2,2-trifluoroethyl)carbamoyl]propyl}amino)pyridin-3-yl]-1H-pyrrolo[2,3-b]pyridin-5-yl}carbamate]"
10 to 500,10 to 500,"CC(C)[C@H](Nc1cncc(-c2c[nH]c3ncc(-c4cnn(C)c4)cc23)c1)C(=O)NCC(F)(F)F [Example 8-2, N^2-{5-[5-(1-methyl-1H-pyrazol-4-yl)-1H-pyrrolo[2,3-b]pyridin-3-yl]pyridin-3-yl}-N-(2,2,2-trifluoroethyl)-L-valinamide]"
≤ 10,≤ 10,"CC(C)[C@@H](Nc1cncc(-c2c[nH]c3ncc(-c4cnn(C)c4)cc23)c1)C(=O)NCC(F)(F)F [Example 8-3, N^2-{5-[5-(1-methyl-1H-pyrazol-4-yl)-1H-pyrrolo[2,3-b]pyridin-3-yl]pyridin-3-yl}-N-(2,2,2-trifluoroethyl)-D-valinamide]"
10 to 500,10 to 500,"CC(C)[C@@H](Nc1cncc(-c2c[nH]c3ncc(COCCN4CCCC4)cc23)c1)C(=O)NCC(F)(F)F [Example 9-1, (R)-3-methyl-2-(5-(5-((2-(pyrrolidin-1-yl)ethoxy)methyl)-1H-pyrrolo[2,3-b]pyridin-3-yl)pyridin-3-ylamino)-N-(2,2,2-trifluoroethyl)butanamide]"
≤ 10,10 to 500,"CC(C)[C@@H](Nc1cncc(-c2c[nH]c3ncc(COCCN4CCN(C(=O)OC(C)(C)C)CC4)cc23)c1)C(=O)NCC(F)(F)F [Example 9-3, tert-butyl 4-[2-({3-[5-({(1R)-2-methyl-1-[(2,2,2-trifluoroethyl)carbamoyl]propyl}amino)pyridin-3-yl]-1H-pyrrolo[2,3-b]pyridin-5-yl}methoxy)ethyl]piper-azine-1-carboxylate]"
≤ 10,10 to 500,"CC(C)[C@@H](Nc1cncc(-c2c[nH]c3ncc(COCCN4CCOCC4)cc23)c1)C(=O)NCC(F)(F)F [Example 9-4, N~2~-(5-{5-[(2-morpholin-4-ylethoxy)methyl]-1H-pyrrolo[2,3-b]pyridin-3-yl}pyridin-3-yl)-N-(2,2,2-trifluoroethyl)-D-valinamide]"
≤ 10,10 to 500,"C=CCOCc1cnc2[nH]cc(-c3cncc(N[C@@H](C(=O)NCC(F)(F)F)C(C)C)c3)c2c1 [Example 9-5, N~2~-(5-{5-[(prop-2-en-1-yloxy)methyl]-1H-pyrrolo[2,3-b]pyridin-3-yl}pyridin-3-yl)-N-(2,2,2-trifluoroethyl)-D-valinamide]"
≤ 10,10 to 500,"CC(C)[C@@H](Nc1cncc(-c2c[nH]c3ncc(COC4CCN(C(=O)OC(C)(C)C)CC4)cc23)c1)C(=O)NCC(F)(F)F [Example 9-6, tert-butyl 4-({3-[5-({(1R)-2-methyl-1-[(2,2,2-trifluoroethy)carbamoyl]propyl}amino)pyridin-3-yl]-1H-pyrrolo[2,3-b]pyridin-5-yl}methoxy)piperidine-1-carboxylate]"
10 to 500,10 to 500,"CC(C)[C@@H](Nc1cncc(-c2c[nH]c3ncc(CN4CCCC4)cc23)c1)C(=O)NCC(F)(F)F [Example 9-7, N~2~-{5-[5-(pyrrolidin-1-ylmethyl)-1H-pyrrolo[2,3-b]pyridin-3-yl]pyridin-3-yl}-N-(2,2,2-trifluoroethyl)-D-valinamide]"
10 to 500,10 to 500,"COCc1cnc2[nH]cc(-c3nncc(N[C@@H](C(=O)NCC(F)(F)F)C(C)C)n3)c2c1 [Example 9-8, N~2~-{3-[5-(methoxymethyl)-1H-pyrrolo[2,3-b]pyridin-3-yl]-1,2,4-triazin-5-yl}-N-(2,2,2-trifluoroethyl)-D-valinamide]"
≤ 10,10 to 500,"COCc1cnc2[nH]cc(-c3cncc(N[C@@H](C(=O)NCC(F)(F)F)C(C)C)c3)c2c1 [Example 9-9, N~2~-{5-[5-(methoxymethyl)-1H-pyrrolo[2,3-b]pyridin-3-yl]pyridin-3-yl}-N-(2,2,2-trifluoroethyl)-D-valinamide]"
10 to 500,> 500,"CC(C)C(Nc1cncc(-c2c[nH]c3ncc(CNC(=O)C4CCCC4)cc23)c1)C(=O)NCC(F)(F)F (stereo not drawn) [Example 10-1, N-((3-(5-(3-methyl-1-oxo-1-(2,2,2-trifluoroethylamino)butan-2-ylamino)pyridin-3-yl)-1H-pyrrolo[2,3-b]pyridin-5-yl)methyl)cyclopentanecarboxamide]"
10 to 500,> 500,"CCC(=O)NCc1cnc2[nH]cc(-c3cncc(N[C@H](C(=O)NCC(F)(F)F)C(C)C)c3)c2c1 [Example 10-2, N~2~-(5-{5-[(propanoylamino)methyl]-1H-pyrrolo[2,3-b]pyridin-3-yl}pyridin-3-yl)-N-(2,2,2-trifluoroethyl)valinamide]"
10 to 500,> 500,"CC(C)C(Nc1cncc(-c2c[nH]c3ncc(CNC(=O)C4CCCCC4)cc23)c1)C(=O)NCC(F)(F)F (stereo not drawn) [Example 10-3, N-({3-[5-({2-methyl-1-[(2,2,2-trifluoroethyl)carbamoyl]prop-yl}amino)pyridin-3-yl]-1H-pyrrolo[2,3-b]pyridin-5-yl}methyl)cyclohexanecar-boxamide]"
≤ 10,10 to 500,"C/C=C/C(=O)NCc1cnc2[nH]cc(-c3cncc(N[C@H](C(=O)NCC(F)(F)F)C(C)C)c3)c2c1 [Example 10-4, N~2~-[5-(5-{[(2E)-but-2-enoylamino]methyl}-1H-pyrrolo[2,3-b]pyridin-3-yl)pyridin-3-yl]-N-(2,2,2-trifluoroethyl)valinamide]"
10 to 500,> 500,"CC(=O)NCc1cnc2[nH]cc(-c3cncc(N[C@H](C(=O)NCC(F)(F)F)C(C)C)c3)c2c1 [Example 10-5, N~2~-(5-{5-[(acetylamino)methyl]-1H-pyrrolo[2,3-b]pyridin-3-yl}pyridin-3-yl)-N-(2,2,2-trifluoroethyl)valinamide]"
≤ 10,10 to 500,"CC(C)[C@H](Nc1cncc(-c2c[nH]c3ncc(CNC(=O)C4CC4)cc23)c1)C(=O)NCC(F)(F)F [Example 10-6, N~2~-[5-(5-{[(cyclopropylcarbonyl)amino]methyl}-1H-pyrrolo[2,3-b]pyridin-3-yl)pyridin-3-yl]-N-(2,2,2-trifluoroethyl)valinamide]"
10 to 500,> 500,"Cc1ncoc1C(=O)NCc1cnc2[nH]cc(-c3cncc(N[C@H](C(=O)NCC(F)(F)F)C(C)C)c3)c2c1 [Example 10-7, N~2~-{5-[5-({[(4-methyl-1,3-oxazol-5-yl)carbonyl]amino}methyl)-1H-pyrrolo[2,3-b]pyridin-3-yl]pyridin-3-yl}-N-(2,2,2-trifluoroethyl)valinamide]"
10 to 500,10 to 500,"CC(C)=CC(=O)NCc1cnc2[nH]cc(-c3cncc(N[C@H](C(=O)NCC(F)(F)F)C(C)C)c3)c2c1 [Example 10-8, N~2~-[5-(5-{[(3-methylbut-2-enoyl)amino]methyl}-1H-pyrrolo[2,3-b]pyridin-3-yl)pyridin-3-yl]-N-(2,2,2-trifluoroethyl)valinamide]"
10 to 500,> 500,"CCCC(=O)NCc1cnc2[nH]cc(-c3cncc(N[C@H](C(=O)NCC(F)(F)F)C(C)C)c3)c2c1 [Example 10-9, N~2~-(5-{5-[(butanoylamino)methyl]-1H-pyrrolo[2,3-b]pyridin-3-yl}pyridin-3-yl)-N-(2,2,2-trifluoroethyl)valinamide]"
10 to 500,> 500,"CC(C)[C@H](Nc1cncc(-c2c[nH]c3ncc(CNC(=O)CC(F)(F)F)cc23)c1)C(=O)NCC(F)(F)F [Example 10-10, N-(2,2,2-trifluoroethyl)-N~2~-[5-(5-{[(3,3,3-trifluoropropanoyl)amino]methyl}-1H-pyrrolo[2,3-b]pyridin-3-yl)pyridin-3-yl]valinamide]"
10 to 500,> 500,"CC(C)[C@H](Nc1cncc(-c2c[nH]c3ncc(CNC(=O)N4CCCC4)cc23)c1)C(=O)NCC(F)(F)F [Example 10-11, N~2~-[5-(5-{[(pyrrolidin-1-ylcarbonyl)amino]methyl}-1H-pyrrolo[2,3-b]pyridin-3-yl)pyridin-3-yl]-N-(2,2,2-trifluoroethyl)valinamide]"

Structure (SMILES),IC50 [1] [nM],IC50 [2] [nM]
"CC(C)[C@@H](Nc1cncc(-c2c[nH]c3ncc(COC(C)(C)C)cc23)c1)C(=O)NCC(F)(F)F [Example 9-2, N~2~-{5-[5-(tert-butoxymethyl)-1H-pyrrolo[2,3-b]pyridin-3-yl]pyridin-3-yl}-N-(2,2,2-trifluoroethyl)-D-valinamide]",10 to 500,10 to 500
